Measurements from patent US20260116921A1, “PEPTIDE INHIBITORS OF INTERLEUKIN-23 RECEPTOR AND THEIR USE TO TREAT INFLAMMATORY DISEASES” (priority 2018, published 2026).
pIC50: −log10 of the molar value.

Molecular target: T1, IL-23R (Homo sapiens, UniProt Q5VWK5)
T1 sequence (Q5VWK5 24-629): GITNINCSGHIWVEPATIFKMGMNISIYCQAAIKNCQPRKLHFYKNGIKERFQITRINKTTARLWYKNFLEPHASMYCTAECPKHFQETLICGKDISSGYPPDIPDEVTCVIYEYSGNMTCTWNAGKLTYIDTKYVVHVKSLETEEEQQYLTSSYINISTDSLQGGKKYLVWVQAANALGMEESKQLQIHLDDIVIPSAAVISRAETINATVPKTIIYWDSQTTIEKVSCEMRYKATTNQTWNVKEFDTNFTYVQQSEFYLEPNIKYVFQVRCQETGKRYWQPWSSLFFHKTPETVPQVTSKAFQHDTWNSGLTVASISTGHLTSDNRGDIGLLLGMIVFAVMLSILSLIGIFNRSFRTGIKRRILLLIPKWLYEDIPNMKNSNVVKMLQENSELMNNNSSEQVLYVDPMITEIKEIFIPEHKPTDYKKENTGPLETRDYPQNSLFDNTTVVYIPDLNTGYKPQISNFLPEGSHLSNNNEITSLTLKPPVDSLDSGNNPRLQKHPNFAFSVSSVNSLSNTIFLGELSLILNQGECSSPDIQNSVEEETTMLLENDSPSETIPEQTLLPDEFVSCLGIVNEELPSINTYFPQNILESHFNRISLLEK
Assay: DB cells IL23R pSTAT3 cell assay (pStat3 HTRF)
Format: cell-based
Conditions: not given
From the text: Human ELISA indicates the IL23-IL23R competitive binding assay described below, Rat ELISA indicates the rat IL-23R competitive binding ELISA assay described below, and pStat3HTRF indicates the DB cells IL-23R pSTAT3 cell assay described below. The peptides depicted in Table E1 are cyclized via a disulfide bridge formed between two Pen residues in these peptides. The peptides depicted in Table E2 are cyclized via a thioether bond between the indicated amino acid residues. Table E2 provides an illustrative structure depicting thioether cyclization, which is indicated in the table by the term “cyclo,” with the cyclic region bracketed immediately following the term “cyclo.” For certain peptides, the residue Abu is present where indicated, whereas in other embodiments, e.g., those related to the non-cyclized form, the Abu may be referred to as a hSer(Cl) or homoSer residue.
DB Cells IL23R pSTAT3 Cell Assay
IL-23 plays a central role in supporting and maintaining Th17 differentiation in vivo. This process is thought to be mediated primarily through the Signal Transducer and Activator of Transcription 3 (STAT3), with phosphorylation of STAT3 (to yield pSTAT3) leading to upregulation of RORC and pro-inflammatory IL-17. This cell assay examines the levels of pSTAT3 in IL-23R-expressing DB cells when stimulated with IL-23 in the presence of test compounds. Serial dilutions of test peptides and IL-23 (Humanzyme #HZ-1261) at a final concentration of 0.5 nM, were added to each well in a 96 well tissue culture plate (Corning #CLS3894). DB cells (ATCC #CRL-2289), cultured in RPMI-1640 medium (Thermo Scientific #11875093) supplemented with 10% FBS, were added at 5×10E5 cells/well and incubated for 30 minutes at 37° C. in a 5% CO2 humidified incubator. Changes in phospho-STAT3 levels in the cell lysates were detected using the Cisbio HTRF pSTAT3 (Tyr705) Cellular Assay Kit (Cisbio #62AT3PEH), according to manufacturer's Two Plate Assay protocol.

Compared with `CC(=O)NCCCC[C@H](NC(=O)[C@](C)(CC(C)C)NC(=O)[C@H](Cc1ccc2ccccc2c1)NC(=O)[C@H](Cc1ccc(OCCN)cc1)NC(=O)[C@H]1NC(=O)[C@H](CCC(N)=O)NC(=O)[C@H](Cc2c[nH]c3ccc(Cl)cc23)NC(=O)[C@H]([C@@H](C)O)NC(=O)[C@H](CC(N)=O)NC(=O)[C@@H](NC(C)=O)C(C)(C)SSC1(C)C)C(=O)N[C@@H](CC(N)=O)C(=O)N[C@@H](CC(N)=O)C(N)=O` [compound 1], `CC(=O)NCCCC[C@H](NC(=O)[C@](C)(CC(C)C)NC(=O)[C@H](Cc1ccc2ccccc2c1)NC(=O)[C@H](Cc1ccc(OCCN)cc1)NC(=O)[C@H]1NC(=O)[C@H](CCC(N)=O)NC(=O)[C@H](Cc2c[nH]c3ccc(O)cc23)NC(=O)[C@H]([C@@H](C)O)NC(=O)[C@H](CC(N)=O)NC(=O)[C@@H](NC(C)=O)C(C)(C)SSC1(C)C)C(=O)N[C@@H](CC(N)=O)C(=O)N[C@@H](CC(N)=O)C(N)=O` [compound 10] is lower in pIC50: 7.00 to 8.00 for the first, < 7.00 for the second.

Compared with `CC(=O)NCCCC[C@H](NC(=O)[C@](C)(CC(C)C)NC(=O)[C@H](Cc1ccc2ccccc2c1)NC(=O)[C@H](Cc1ccc(OCCN)cc1)NC(=O)[C@H]1NC(=O)[C@H](CCC(N)=O)NC(=O)[C@H](Cc2c[nH]c3cc(F)ccc23)NC(=O)[C@H]([C@@H](C)O)NC(=O)[C@H](CC(N)=O)NC(=O)[C@@H](NC(C)=O)C(C)(C)SSC1(C)C)C(=O)N[C@@H](CC(N)=O)C(=O)N[C@@H](CC(N)=O)C(N)=O` [compound 3], `CC(=O)NCCCC[C@H](NC(=O)[C@](C)(CC(C)C)NC(=O)[C@H](Cc1ccc2ccccc2c1)NC(=O)[C@H](Cc1ccc(OCCN)cc1)NC(=O)[C@H]1NC(=O)[C@H](CCC(N)=O)NC(=O)[C@H](Cc2c[nH]c3ccc(Br)cc23)NC(=O)[C@H]([C@@H](C)O)NC(=O)[C@H](CC(N)=O)NC(=O)[C@@H](NC(C)=O)C(C)(C)SSC1(C)C)C(=O)N[C@@H](CC(N)=O)C(=O)N[C@@H](CC(N)=O)C(N)=O` [compound 11] is lower in pIC50: 7.00 to 8.00 for the first, < 7.00 for the second. The first is the more potent here.

Compared with `COc1ccc2[nH]cc(C[C@@H]3NC(=O)[C@H]([C@@H](C)O)NC(=O)[C@H](CC(N)=O)NC(=O)[C@@H](NC(C)=O)C(C)(C)SSC(C)(C)[C@@H](C(=O)N[C@@H](Cc4ccc(OCCN)cc4)C(=O)N[C@@H](Cc4ccc5ccccc5c4)C(=O)N[C@@](C)(CC(C)C)C(=O)N[C@@H](CCCCNC(C)=O)C(=O)N[C@@H](CC(N)=O)C(=O)N[C@@H](CC(N)=O)C(N)=O)NC(=O)[C@H](CCC(N)=O)NC3=O)c2c1` [compound 9], `COc1ccc2[nH]cc(C[C@H](NC(=O)[C@H](Cc3ccc(OCCN)cc3)NC(=O)[C@H]3NC(=O)[C@H](CCC(N)=O)NC(=O)[C@H](Cc4c[nH]c5ccccc45)NC(=O)[C@H]([C@@H](C)O)NC(=O)[C@H](CC(N)=O)NC(=O)[C@@H](NC(C)=O)C(C)(C)SSC3(C)C)C(=O)N[C@@](C)(CC(C)C)C(=O)N[C@@H](CCCCNC(C)=O)C(=O)N[C@@H](CC(N)=O)C(=O)N[C@@H](CC(N)=O)C(N)=O)c2c1` [compound 20] is higher in pIC50: < 7.00 for the first, 7.00 to 8.00 for the second. The second is the more potent here.

First: CC(=O)NCCCC[C@H](NC(=O)[C@](C)(CC(C)C)NC(=O)[C@H](Cc1c[nH]c2ccc(Cl)cc12)NC(=O)[C@H](Cc1ccc(OCCN)cc1)NC(=O)[C@H]1NC(=O)[C@H](CCC(N)=O)NC(=O)[C@H](Cc2c[nH]c3ccccc23)NC(=O)[C@H]([C@@H](C)O)NC(=O)[C@H](CC(N)=O)NC(=O)[C@@H](NC(C)=O)C(C)(C)SSC1(C)C)C(=O)N[C@@H](CC(N)=O)C(=O)N[C@@H](CC(N)=O)C(N)=O [compound 12]
Second: CC(=O)NCCCC[C@H](NC(=O)[C@](C)(CC(C)C)NC(=O)[C@H](Cc1c[nH]c2ccc(F)cc12)NC(=O)[C@H](Cc1ccc(OCCN)cc1)NC(=O)[C@H]1NC(=O)[C@H](CCC(N)=O)NC(=O)[C@H](Cc2c[nH]c3ccccc23)NC(=O)[C@H]([C@@H](C)O)NC(=O)[C@H](CC(N)=O)NC(=O)[C@@H](NC(C)=O)C(C)(C)SSC1(C)C)C(=O)N[C@@H](CC(N)=O)C(=O)N[C@@H](CC(N)=O)C(N)=O [compound 18]
The pIC50 of the first is lower: < 7.00 for the first, 7.00 to 8.00 for the second. The second is the more potent here.

First: COc1cccc2[nH]cc(C[C@H](NC(=O)[C@H](Cc3ccc(OCCN)cc3)NC(=O)[C@H]3NC(=O)[C@H](CCC(N)=O)NC(=O)[C@H](Cc4c[nH]c5ccccc45)NC(=O)[C@H]([C@@H](C)O)NC(=O)[C@H](CC(N)=O)NC(=O)[C@@H](NC(C)=O)C(C)(C)SSC3(C)C)C(=O)N[C@@](C)(CC(C)C)C(=O)N[C@@H](CCCCNC(C)=O)C(=O)N[C@@H](CC(N)=O)C(=O)N[C@@H](CC(N)=O)C(N)=O)c12 [compound 15]
Second: CC(=O)NCCCC[C@H](NC(=O)[C@](C)(CC(C)C)NC(=O)[C@H](Cc1c[nH]c2cc(C)ccc12)NC(=O)[C@H](Cc1ccc(OCCN)cc1)NC(=O)[C@H]1NC(=O)[C@H](CCC(N)=O)NC(=O)[C@H](Cc2c[nH]c3ccccc23)NC(=O)[C@H]([C@@H](C)O)NC(=O)[C@H](CC(N)=O)NC(=O)[C@@H](NC(C)=O)C(C)(C)SSC1(C)C)C(=O)N[C@@H](CC(N)=O)C(=O)N[C@@H](CC(N)=O)C(N)=O [compound 16]
The pIC50 of the first is lower: < 7.00 for the first, 8.00 to 9.00 for the second. The second is the more potent here.

`CC(=O)NCCCC[C@H](NC(=O)[C@](C)(CC(C)C)NC(=O)[C@H](Cc1c[nH]c2c(C)cccc12)NC(=O)[C@H](Cc1ccc(OCCN)cc1)NC(=O)[C@H]1NC(=O)[C@H](CCC(N)=O)NC(=O)[C@H](Cc2c[nH]c3ccccc23)NC(=O)[C@H]([C@@H](C)O)NC(=O)[C@H](CC(N)=O)NC(=O)[C@@H](NC(C)=O)C(C)(C)SSC1(C)C)C(=O)N[C@@H](CC(N)=O)C(=O)N[C@@H](CC(N)=O)C(N)=O` [compound 17] and `CC(=O)NCCCC[C@H](NC(=O)[C@](C)(CC(C)C)NC(=O)[C@H](Cc1c[nH]c2c(F)cccc12)NC(=O)[C@H](Cc1ccc(OCCN)cc1)NC(=O)[C@H]1NC(=O)[C@H](CCC(N)=O)NC(=O)[C@H](Cc2c[nH]c3ccccc23)NC(=O)[C@H]([C@@H](C)O)NC(=O)[C@H](CC(N)=O)NC(=O)[C@@H](NC(C)=O)C(C)(C)SSC1(C)C)C(=O)N[C@@H](CC(N)=O)C(=O)N[C@@H](CC(N)=O)C(N)=O` [compound 19] fall in the same range of pIC50: 7.00 to 8.00 for the first, 7.00 to 8.00 for the second.

Compared with `CC(=O)NCCCC[C@H](NC(=O)[C@](C)(CC(C)C)NC(=O)[C@H](Cc1c[nH]c2ccc(O)cc12)NC(=O)[C@H](Cc1ccc(OCCN)cc1)NC(=O)[C@H]1NC(=O)[C@H](CCC(N)=O)NC(=O)[C@H](Cc2c[nH]c3ccccc23)NC(=O)[C@H]([C@@H](C)O)NC(=O)[C@H](CC(N)=O)NC(=O)[C@@H](NC(C)=O)C(C)(C)SSC1(C)C)C(=O)N[C@@H](CC(N)=O)C(=O)N[C@@H](CC(N)=O)C(N)=O` [compound 21], `CC(=O)NCCCC[C@H](NC(=O)[C@](C)(CC(C)C)NC(=O)[C@H](Cc1c[nH]c2ccc(Br)cc12)NC(=O)[C@H](Cc1ccc(OCCN)cc1)NC(=O)[C@H]1NC(=O)[C@H](CCC(N)=O)NC(=O)[C@H](Cc2c[nH]c3ccccc23)NC(=O)[C@H]([C@@H](C)O)NC(=O)[C@H](CC(N)=O)NC(=O)[C@@H](NC(C)=O)C(C)(C)SSC1(C)C)C(=O)N[C@@H](CC(N)=O)C(=O)N[C@@H](CC(N)=O)C(N)=O` [compound 22] is higher in pIC50: < 7.00 for the first, 8.00 to 9.00 for the second. The second is the more potent here.

In the case of `CC(=O)NCCCC[C@H](NC(=O)C1(NC(=O)[C@H](Cc2ccc3ccccc3c2)NC(=O)[C@H](Cc2ccc(OCCN)cc2)NC(=O)[C@@H]2CSCC[C@H](NC(C)=O)C(=O)N[C@@H](CCC(N)=O)C(=O)N[C@@H]([C@@H](C)O)C(=O)N[C@@H](Cc3c[nH]c4c(C)cccc34)C(=O)N[C@@H](CCC(N)=O)C(=O)N2)CCOCC1)C(=O)N[C@@H](CC(N)=O)C(=O)N[C@@H](CC(N)=O)C(N)=O` [compound 30], the pIC50 was 8.00 to 9.00.

Same assay, conditions: Table E3; DB cells, IL-23 0.5 nM, 30 minutes at 37° C.; read-out: pStat3 HTRF (IC50)

`CC(=O)N[C@H](CCCNC(=N)N)C(=O)N[C@H]1CCSC[C@@H](C(=O)N[C@@H](Cc2ccc(OCCN)cc2)C(=O)N[C@@H](Cc2ccc3ccccc3c2)C(=O)NC2(C(=O)N[C@@H](CCC(=O)O)C(=O)N[C@@H](CC(N)=O)C(=O)NCCC(N)=O)CCOCC2)NC(=O)[C@H](CCC(N)=O)NC(=O)[C@H](Cc2c[nH]c3c(C)cccc23)NC(=O)[C@H]([C@@H](C)O)NC(=O)[C@H](CCC(N)=O)NC1=O` [compound 203] gave a pIC50 of 8.00 to 9.00.
